Test results taken from patent US20150071954A1, “STABLE PEPTIDE MIMETICS OF THE HIV-1 GP41 PRE-HAIRPIN INTERMEDIATE” (priority 2012, published 2015).
No end group written: not given here.

Experiments:
[1] = Circular dichroism (secondary structure, thermal stability); format: physicochemical; details: pH 4, 20° C.
[2] = Analytical ultracentrifugation (oligomeric state); format: physicochemical; details: for AUC Ratio (observed to predicted Mw): AUC condition a: 25 mM Na Acetate, 0.15M NaCl, pH 4; for self-association from AUC ratio of observed to predicted molecular weight: monomeric peptides
Procedure: All analytical ultracentrifugation (AU) experiments were performed with a XL-I analytical ultracentrifuge (Beckman Coulter, Inc., Indianopolis, Ind.) at 20° C. For sedimentation velocity analysis, the samples were centrifuged at 48,000 rpm at 20° C. for 5 hours, with radial absorbance scans taken approximately every 4 minutes. g*(s) analysis was performed with the program DCDT+, version 2.2.1 (John Philo, Thousand Oaks, Calif.) or the Optima XL-I data analysis software (Beckman Coulter, Inc.). Sedimentation equilibrium experiments were conducted at three different loading concentrations and three different rotor speeds (16,000, 20,000, and 30,000). Molecular masses were calculated using the Optima XL-I data analysis software or using Heteroanalysis version 1.1.33 (from the Analytical Ultracentrifugation Facility, Biotechnology and Bioservices Center of the University of Connecticut).

[3] = tested on: D5 IgG binding to 5-helix (recombinant gp41 mimetic); experiment: D5/5-Helix Competitive Binding Assay (DCBA), peptide constructs; details: for IC50: competition for D5 binding to 5-helix, FRET
Procedure: An in vitro binding assay based on fluorescence resonance energy transfer (FRET) was performed as previously described in Caulfield et al., 2010, J Biol Chem 285:40604-40611. Briefly, the assay uses D5 IgG (see U.S. Pat. No. 7,744,887) conjugated to europium cryptate (Eu-D5) and a biotinylated derivative of the recombinant gp41 mimetic 5-helix (5H). Biotin-5H binds to a streptavidin-conjugated allophycocyanin (APC) substrate to form a 5H-SA-APC complex. Binding of Eu-D5 to 5H results in FRET from Eu to APC. When the reaction system is excited at a wavelength of 340 nm, the amount of bound Eu-D5 is measured at the emission wavelength of 665 nm, and total Eu is measured at the emission wavelength of 620 nm. Data are reported as 10000× the ratio of signal at 665 nm to signal at 620 nm. Agents that bind competitively to either component cause a decrease in the ratio value.

HXB2 = format: cell-based, HIV-1; details: HeLa P4R5 cells, virus HXB2; read-out: p4/2R5 IC50 HXB2
Excerpt: (§1) A number of different experimental methods can be used to determine whether or not a gp41 peptide mimetic can form a stable, faithful mimetic of said internal coiled-coil. For example, an assay designed to measure the ability of the conformationally constrained gp41 peptide mimetics to inhibit infectivity of HIV particles can be performed. In one such assay, HeLa cells stably expressing human CD4 and CCR5 receptors and harboring a β-galactosidase reporter gene driven by a tat-responsive fragment of HIV-2 LTR are infected with HIV-1 of various strains in the presence of gp41 peptide mimetics at varying concentrations. After incubating said cells for a specific period of time, the cells are lysed and β-galactosidase activity is quantified.
(§2) This neutralization assay was performed as previously described in Joyce et al., 2002, J Biol Chem 277:45811-45820 with the following modifications: HeLa P4R5 cells were seeded at 1000 cells/well in a 384-well plate and infected the following day with the appropriate HIV-1 or SHIV virus at a multiplicity of infection of approximately 0.01 in the presence of serial dilutions of immune sera or fractionated IgG 48 hours post infection, and cells were lysed and β-galactosidase activity was measured using a chemiluminescent substrate (GalScreen®, Applied Biosystems™, Life Technologies Corp., Carlsbad, Calif.). For analysis of purified IgG, the data are expressed as IC50, defined as the IgG concentration resulting in 50% reduction of chemiluminescence signal. For analysis of sera, the IC50 is defined as the reciprocal serum dilution resulting in 50% reduced chemiluminescence signal.

viral strain V570A = format: cell-based, HIV-1; details: HeLa P4R5 cells, virus V570A; read-out: p4/2R5 IC50 V570A
Excerpt: as §1, §2

[4] = molecular target: gp41 of HIV-1 virus HXB2 (HIV-1 isolate HXB2) (UniProt P04578); experiment: cell-based or functional assay
[5] = molecular target: gp41 of HIV-1 virus V570A (HIV-1 isolate HXB2) (UniProt P04578); experiment: cell-based or functional assay
[6] = molecular target: gp41 of HIV-1 virus V570A (HIV-1 isolate HXB2, UniProt P04578 512-856); experiment: cell-based or functional assay
gp41 of HIV-1 virus HXB2 = gp41 of HIV-1 virus HXB2 (HIV-1 isolate HXB2, UniProt P04578 512-856); experiment: cell-based or functional assay
[7] = molecular target: the molecule itself; experiment: analytical ultracentrifugation (ratio of observed to predicted molecular weight); self-association
[8] = CD condition a: 50 mM Na Acetate, 0.15M NaCl

## Ac-QARQLLSGIVQQQNNLLRAIEAQQHALQLTVWGIKQLQARILAVERYLKDQ-NH2 (N-terminus assumed) [Peptide N51-3B]
[1]; [8]
  CD % (-helix): 105%
[2]
  AUC Ratio (observed to predicted Mw): 3.3
  self-association from AUC ratio of observed to predicted molecular weight: strong preference for self-association
[3]
  effect of mutations on D5 binding in DCBA: apparent negative impact
  IC50: > 300 nM
HXB2
  IC50: 107 nM
Viral strain V570A
  IC50: 49.3 nM

## Ac-QIRELISKIVEQINNILRAIEAQQHALQLTVWGIKQLQARILAVERYLKDQ-NH2 (N-terminus assumed) [Peptide N51-2B]
[1]; [8]
  CD % (-helix): 97%
[2]
  AUC Ratio (observed to predicted Mw): 3.6
  self-association from AUC ratio of observed to predicted molecular weight: strong preference for self-association
[3]
  effect of mutations on D5 binding in DCBA: apparent negative impact
  IC50: > 300 nM
HXB2
  IC50: 60.9 nM
Viral strain V570A
  IC50: 33.4 nM

## D5 IgG (antibody)
[4]
  p4/2R5 IC50 (nM), HXB2: 179 nM
[5]
  p4/2R5 IC50 (nM), V570A: 61.7 nM

## KTA(N51-3B)3: three thiol tagged monomeric N51-3B peptides ligated on trivalent bromide scaffold KTA-Br (QARQLLSGIVQQQNNLLRAIEAQQHALQLTVWGIKQLQARILAVERYLKDQ-NH2; not fully specified (N-terminus); also: trimer: three S-acetylglycolic thiol-tagged N51-3B ligated on trivalent bromide scaffold KTA-Br)
[1]; CD condition c: 25 mM Na Acetate
  CD % (-helix): 88%
[2]; pH 7
  AUC Observed Mw: precipitation: ppt (pH 7)
[3]
  IC50: 38.4 nM

B1: N51-2B (L′583) (peptide)
peptide: QIRELISKIVEQINNILRAIEAQQHALQLTVWGIKQLQARILAVERYLKDQ
modifications: not fully specified (C-terminus)
notes: Monomeric synthetic peptide made on Rink amide resin; Self-associates in solution
[6]
  p4/2R5 IC50 (nM), V570A: 33.4 nM
gp41 of HIV-1 virus HXB2
  p4/2R5 IC50 (nM), HXB2: 60.9 nM
[7]
  binding result: binds

B2: N51-3B (L′584) (peptide)
peptide: QARQLLSGIVQQQNNLLRAIEAQQHALQLTVWGIKQLQARILAVERYLKDQ
notes: Monomeric synthetic peptide
[6]
  p4/2R5 IC50 (nM), V570A: 49.3 nM
gp41 of HIV-1 virus HXB2
  p4/2R5 IC50 (nM), HXB2: 107 nM
[7]
  binding result: binds

B3: KTA(N51-3B)3 (L′510) (peptide)
peptide: QARQLLSGIVQQQNNLLRAIEAQQHALQLTVWGIKQLQARILAVERYLKDQ
modifications: not fully specified (N-terminus); also: covalent trimer of three N51-3B peptides on Kemp's triacid scaffold
[6]
  p4/2R5 IC50 (nM), V570A: 29.1 nM
gp41 of HIV-1 virus HXB2
  p4/2R5 IC50 (nM), HXB2: 79.4 nM
